These results are taken from patent US20260217701A1, “SELECTIVE BET INHIBITORS AND USES THEREOF” (Tay Therapeutics Limited, priority 2022, published 2026).

Like-named read-outs stand apart in the source and are kept apart here.

Assay [1] relates to CXCL10. Description: CXCL10 release from IFN-γ stimulated human PBMCs (ELISA). The format is cell-based. The following applies: for IC50: Homo sapiens, PBMC. Here is the method:
To analyze the selectivity of Compound A for CXCL10, human PBMCs were similarly thawed, and compounds were similarly prepared (final compound concentration ranged from 30,000 nM to 0.005 nM, with a final DMSO concentration per well of 0.3%). PBMCs were seeded into 96-well plates at a concentration of 2×10^5 cells/well (volume of 190 μL) and treated with various concentrations of Compound A for 1 hour. The PBMCs were then stimulated with IFN-γ (15 ng/ml final concentration in a volume of 10 μL), and supernatants were collected 24 hours after the exposure to IFN-γ. Levels of CXCL10 in the supernatant were then analyzed by ELISA (Invitrogen).
For orientation: In an ELISA, binding on a coated surface is turned into a signal by an enzyme label.

For assay [2], the target named is T1, BRD4 BD1 (Homo sapiens, UniProt O60885).
T1 construct: HEK293 cells were transfected using NanoLuc-BRD4-BD1 or NanoLuc-BRD4-BD2 fusion vectors
Description: NanoBRET bromodomain assay, NanoLuc-BRD4-BD1 in HEK293 cells. The format is binding. In general terms: Bioluminescence resonance energy transfer reports proximity on the nanometre scale.

On to `Cn1cc(-c2ccccc2)c(-c2cn(C)c(=O)c3[nH]c(-c4cnn(C(F)(F)F)c4)cc23)cc1=O` [Compound A, 6-methyl-4-(1-methyl-2-oxo-5-phenyl-1,2-dihydropyridin-4-yl)-2-(1-(trifluoromethyl)-1H-pyrazol-4-yl)-1,6-dihydro-7H-pyrrolo[2,3-c]pyridin-7-one], for which the “Percent Inhibition Relative to Control (CXCL10)” value in assay [1] (Compound Conc. 10 μM, Donors 1-6 two values each, Donors 7-10 three values each) is given as 101.41%. Moreover, the IC50 (in general, the concentration that gives 50% inhibition) in assay [1] (Average preliminary biomarker assay, read-out: CXCL10 IC50 Mean) is 1 µM; in assay [1] (Preliminary biomarker assay, Test Subject 1, read-out: CXCL 10 IC50), 1 µM; in assay [1] (ELISA, read-out: Selectivity (IC50) CXCL10), 3.64 µM. The “inhibition of CXCL10” value in assay [1] (human PBMCs, IFN-γ, 24 hours) is given as “minimal inhibition”. The EC50 – broadly, the midpoint of the concentration-response curve – is 182 µM in assay [2] (previously determined, reference level for rat plasma concentrations (FIG. 4D), read-out: free EC50 BD1 (converted)) and 139 µM in assay [2] (reference level for dog plasma concentrations (Dog PK study #4), read-out: free EC50 BD1 BRD4).
